Consider 21 molecules from patent US10611750B2, “Tetrahydroquinoline compositions as bet bromodomain inhibitors” (FORMA Therapeutics, Inc., priority 2013, dated 2020).

Assay [1] has as its system acute myelocytic leukemia (AML) cell line MV4-11. The assay can be described thus: Oncology cell growth assay (3-day proliferation, CellTiter-Glo). The note with it: Homo sapiens, MV4-11, 72 h, MV4-11 cells, 3000 cells/well, compounds listed under IC50 range headings, read-out: MV411 IC50 (gIC50, inhibition of proliferation). It is filed as cell-based. Summed up: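 MV4-11 AML cells (RPMI 1640, 10% FBS) plated at 3000 cells/well and exposed 72 h to compound at final 10 to 0.0045 μM (3-fold series). Viability read by CellTiter-Glo luminescence; gIC50 from four-parameter logistic fit between DMSO control and no-cell background.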
(In general: Cellular ATP, detected with luciferase, serves as a proxy for viable cell number.)

The target in assay [2] is T1, BRD4 Bromodomain 1 (BRD4 BD1) (Homo sapiens, UniProt O60885).
T1 construct: 44-168 and BRD4 BD2
The assay can be described thus: AlphaScreen binding assay, BRD4 BD1. The note with it: His-tagged BRD4 BD1 50 nM, biotinylated H4 (1-21) K5/8/12/16 tetra-acetylated peptide 50 nM, compounds listed under IC50 range headings. Summed up: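 Compound dilution series were mixed with His-tagged BRD4 bromodomain and biotinylated tetra-acetylated H4 (1-21) peptide at pH 7.3 (BD1 and peptide at 50 nM, BD2 and peptide at 100 nM). Donor and acceptor beads were then added, and plates were equilibrated at least 1 h before reading. IC50 values were fitted with a four-parameter logistic model.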
(In general: Bead proximity is the source of the signal in Alpha formats.)

Each structure is given as a SMILES string.

For the molecule `COC(=O)N1c2ccc(-c3c[nH]c(C4CCNCC4)n3)c(OC3CCC3)c2CC[C@@H]1C` [I-303, methyl (S)-5-cyclobutoxy-2-methyl-6-(2-(piperidin-4-yl)-1H-imidazol-4-yl)-3,4-dihydroquinoline-1(2H)-carboxylate], the IC50 was below 500 nM in assay [1] and 100 to 1000 nM in assay [2].

For the molecule `COC(=O)N1c2ccc(-c3cn(C)c(C4CCNCC4)n3)c(OC3CCC3)c2CC[C@@H]1C` [I-304, methyl (S)-5-cyclobutoxy-2-methyl-6-(1-methyl-2-(piperidin-4-yl)-1H-imidazol-4-yl)-3,4-dihydroquinoline-1(2H)-carboxylate], the results for the IC50 in assay [1] and in assay [2] were above 1000 nM and at least 10000 nM, respectively.

With `C[C@H]1CCc2c(ccc(-c3ccn(C4CCNCC4)n3)c2OC2CCC2)N1C(=O)C1CC1` [I-305, (S)-(5-cyclobutoxy-2-methyl-6-(1-(piperidin-4-yl)-1H-pyrazol-3-yl)-3,4-dihydroquinolin-1 (2H)-yl)(cyclopropyl)methanone], the IC50 is below 500 nM in assay [1] and 1000 to 10000 nM in assay [2].

Regarding `C[C@H]1CCc2c(ccc(-c3ccnn3C3CCNCC3)c2OC2CCC2)N1C(=O)C1CC1` [I-306, ((2S)-5-cyclobutoxy-2-methyl-6-(1-(piperidin-4-yl)-1H-pyrazol-5-yl)-3,4-dihydroquinolin-1(2H)-yl)(cyclopropyl)methanone], the IC50 in assay [1] is above 1000 nM; in assay [2] it was at least 10000 nM.

For `C[C@H]1CCc2c(ccc(-c3ccn(C4CCNCC4)n3)c2Oc2ccccc2)N1C(=O)C1CC1` [I-307, (S)-cyclopropyl(2-methyl-5-phenoxy-6-(1-(piperidin-4-yl)-1H-pyrazol-3-yl)-3,4-dihydroquinolin-1(2H)-yl)methanone], the IC50 in assay [1] was below 500 nM; in assay [2], 100 to 1000 nM.

As to `C[C@H]1CCc2c(ccc(-c3ccnn3C3CCNCC3)c2Oc2ccccc2)N1C(=O)C1CC1` [I-308, cyclopropyl((2S)-2-methyl-5-phenoxy-6-(1-(piperidin-4-yl)-1H-pyrazol-5-yl)-3,4-dihydroquinolin-1(2H)-yl)methanone], the IC50 is above 1000 nM in assay [1] and at least 10000 nM in assay [2].

On to `C[C@H]1CCc2c(ccc(-c3cnn(C4CCNCC4)n3)c2OC2CCC2)N1C(=O)C1CC1` [I-309, (S)-(5-cyclobutoxy-2-methyl-6-(2-(piperidin-4-yl)-2H-1,2,3-triazol-4-yl)-3,4-dihydroquinolin-1(2H)-yl)(cyclopropyl)methanone], for which the IC50 in assay [1] was below 500 nM; in assay [2], 1000 to 10000 nM.

For `C[C@H]1CCc2c(ccc(-c3cn(C4CCNCC4)nn3)c2OC2CCC2)N1C(=O)C1CC1` [I-310, (S)-(5-cyclobutoxy-2-methyl-6-(1-(piperidin-4-yl)-1H-1,2,3-triazol-4-yl)-3,4-dihydroquinolin-1(2H)-yl)(cyclopropyl)methanone], the IC50 in assay [1] was below 500 nM; in assay [2], 100 to 1000 nM.

Take `C[C@H]1CCc2c(ccc(-c3cnn(C4CCNCC4)n3)c2Oc2ccccc2)N1C(=O)C1CC1` [I-311, (S)-cyclopropyl(2-methyl-5-phenoxy-6-(2-(piperidin-4-yl)-2H-1,2,3-triazol-4-yl)-3,4-dihydroquinolin-1(2H)-yl)methanone]: the IC50 in assay [1] is below 500 nM; in assay [2], below 100 nM.

With `C[C@H]1CCc2c(ccc(-c3cn(C4CCNCC4)nn3)c2Oc2ccccc2)N1C(=O)C1CC1` [I-312, (S)-cyclopropyl(2-methyl-5-phenoxy-6-(1-(piperidin-4-yl)-1H-1,2,3-triazol-4-yl)-3,4-dihydroquinolin-1(2H)-yl)methanone], the IC50 in assay [1] was below 500 nM; in assay [2], below 100 nM.

With `COC(=O)N1c2ccc(-c3csc(C4CNC4)n3)c(OC3CCC3)c2CC[C@@H]1C` [I-313, (S)-methyl 6-(2-(azetidin-3-yl)thiazol-4-yl)-5-cyclobutoxy-2-methyl-3,4-dihydroquinoline-1(2H)-carboxylate], the IC50 in assay [1] is above 1000 nM; in assay [2], 100 to 1000 nM.

For the molecule `COC(=O)N1c2ccc(-c3csc(C4(O)CNC4)n3)c(OC3CCC3)c2CC[C@@H]1C` [I-314, (S)-methyl-5-cyclobutoxy-6-(2-(3-hydroxyazetidin-3-yl)thiazol-4-yl)-2-methyl-3,4-dihydroquinoline-1(2H)-carboxylate], the IC50 was above 1000 nM in assay [1] and 1000 to 10000 nM in assay [2].

Take `COC(=O)N1c2ccc(-c3cn(C)c(N4CCNCC4)n3)c(OC3CCC3)c2CC[C@@H]1C` [I-315, (S)-methyl 5-cyclobutoxy-2-methyl-6-(1-methyl-2-(piperazin-1-yl)-1H-imidazol-4-yl)-3,4-dihydroquinoline-1(2H)-carboxylate]: the results for the IC50 in assay [1] and in assay [2] were below 500 nM and 100 to 1000 nM, respectively.

Turning to `COC(=O)N1c2ccc(-c3csc(N4CCNCC4)n3)c(OC3CCC3)c2CC[C@@H]1C` [I-316, (S)-methyl 5-cyclobutoxy-2-methyl-6-(2-(piperazin-1-yl)thiazol-4-yl)-3,4-dihydroquinoline-1(2H)-carboxylate], the IC50 was below 500 nM in assay [1] and 100 to 1000 nM in assay [2].

As to `COC(=O)N1c2ccc(-c3csc(N4CC(O)C4)n3)c(OC3CCC3)c2CC[C@@H]1C` [I-317, (S)-methyl 5-cyclobutoxy-6-(2-(3-hydroxyazetidin-1-yl)thiazol-4-yl)-2-methyl-3,4-dihydroquinoline-1(2H)-carboxylate], the figures for the IC50 in assay [1] and in assay [2] were 500 to 1000 nM and 100 to 1000 nM, respectively.

As to `C[C@H]1CCc2c(ccc(-c3cn(C)nn3)c2Oc2cc(F)ccc2F)N1C(=O)C1CC1` [I-318, (S)-cyclopropyl(5-(2,5-difluorophenoxy)-2-methyl-6-(1-methyl-1H-1,2,3-triazol-4-yl)-3,4-dihydroquinolin-1(2H)-yl)methanone], the figures for the IC50 in assay [1] and in assay [2] were below 500 nM and 100 to 1000 nM, respectively.

Take `C[C@H]1CCc2c(ccc(-c3cn(C)nn3)c2Oc2ccc(F)c(F)c2)N1C(=O)C1CC1` [I-319, (S)-cyclopropyl(5-(3,4-difluorophenoxy)-2-methyl-6-(1-methyl-1H-1,2,3-triazol-4-yl)-3,4-dihydroquinolin-1(2H)-yl)methanone]: the IC50 in assay [1] is below 500 nM; in assay [2], 1000 to 10000 nM.

Take `C[C@H]1CCc2c(ccc(-c3cn(C)nn3)c2Oc2ccccc2F)N1C(=O)C1CC1` [I-320, (S)-cyclopropyl(5-(2-fluorophenoxy)-2-methyl-6-(1-methyl-1H-1,2,3-triazol-4-yl)-3,4-dihydroquinolin-1(2H)-yl)methanone]: the figures for the IC50 in assay [1] and in assay [2] were below 500 nM and 100 to 1000 nM, respectively.

Take `C[C@H]1CCc2c(Oc3ccccc3)c(-c3cn(C)nn3)cc(F)c2N1C(=O)C1CC1` [I-321, (S)-cyclopropyl(8-fluoro-2-methyl-6-(1-methyl-1H-1,2,3-triazol-4-yl)-5-phenoxy-3,4-dihydroquinolin-1(2H)-yl)methanone]: the IC50 was below 500 nM in assay [1] and 100 to 1000 nM in assay [2].

With `COC(=O)N1c2c(F)cc(-c3cn(C)nn3)c(Oc3ccccc3)c2CC[C@@H]1C` [I-322, (S)-methyl 8-fluoro-2-methyl-6-(1-methyl-1H-1,2,3-triazol-4-yl)-5-phenoxy-3,4-dihydroquinoline-1(2H)-carboxylate], the IC50 in assay [1] is below 500 nM; in assay [2], 100 to 1000 nM.

Consider `CC(=O)N1c2c(F)cc(-c3cn(C)nn3)c(Oc3ccccc3)c2CC[C@@H]1C` [I-323, (S)-1-(8-fluoro-2-methyl-6-(1-methyl-1H-1,2,3-triazol-4-yl)-5-phenoxy-3,4-dihydroquinolin-1(2H)-yl)ethanone], for which the IC50 in assay [1] was below 500 nM; in assay [2], 1000 to 10000 nM.
